Test results taken from article PMC6325233, “A Novel Actin Binding Drug with In Vivo Efficacy” (Antimicrobial Agents and Chemotherapy, 2018).
Converted amounts (≈) assume the structure as drawn. Like-named read-outs stand apart in the source and are kept apart here.

Experiments:
[1] = test system: Trichophyton rubrum 11199; assay: MIC susceptibility testing (terbinafine-resistant strain); assay type: cell-based; details: Trichophyton rubrum, 11199, CLSI M38-A2
Experimental: (§1) Occidiofungin was purified from a liquid culture of Burkholderia contaminans MS14 as previously described ([21]). MIC susceptibility testing was performed according to the CLSI M27-A3 and M38-A2 standards for the susceptibility testing of yeasts and filamentous fungi, respectively. S. cerevisiae deletion mutants were obtained from the commercially available BY4741 deletion library (Thermo Scientific).

[2] = test system: Trichophyton mentagrophytes 10207; assay: MIC susceptibility testing (itraconazole-resistant strain); assay type: cell-based; details: Trichophyton mentagrophytes, 10207, CLSI M38-A2
Experimental: as §1

[3] = test system: Trichophyton mentagrophytes 28641; assay: MIC susceptibility testing; assay type: cell-based; details: Trichophyton mentagrophytes, 28641, CLSI M38-A2
Experimental: as §1

[4] = test system: Trichophyton mentagrophytes 28556; assay: MIC susceptibility testing; assay type: cell-based; details: Trichophyton mentagrophytes, 28556, CLSI M38-A2
Experimental: as §1

[5] = test system: Mucor circinelloides 19445; assay: MIC susceptibility testing; assay type: cell-based; details: Mucor circinelloides, 19445; CLSI M38-A2; read-out: Voriconazole MIC
Experimental: as §1

[6] = test system: Trichophyton rubrum 28659; assay: MIC susceptibility testing; assay type: cell-based; details: Trichophyton rubrum, 28659, CLSI M38-A2
Experimental: as §1

[7] = test system: Fusarium solani 18749; assay: MIC susceptibility testing; assay type: cell-based; details: Fusarium solani, 18749; CLSI M38-A2; read-out: Voriconazole MIC
Experimental: as §1

[8] = test system: Trichophyton rubrum 28658; assay: MIC susceptibility testing; assay type: cell-based; details: Trichophyton rubrum, 28658, CLSI M38-A2
Experimental: as §1

[9] = test system: Aspergillus fumigatus 28436; assay: MIC susceptibility testing; assay type: cell-based; details: Aspergillus fumigatus, 28436; CLSI M38-A2; read-out: Voriconazole MIC
Experimental: as §1

[10] = test system: Aspergillus flavus 28517; assay: MIC susceptibility testing; assay type: cell-based; details: Aspergillus flavus, 28517; CLSI M38-A2; read-out: Voriconazole MIC
Experimental: as §1

[11] = test system: Mucor racemosus 27784; assay: MIC susceptibility testing; assay type: cell-based; details: Mucor racemosus, 27784; CLSI M38-A2; read-out: Voriconazole MIC
Experimental: as §1

[12] = test system: Rhizopus oryzae 28403; assay: MIC susceptibility testing; assay type: cell-based; details: Rhizopus arrhizus, 28403; CLSI M38-A2; read-out: Voriconazole MIC
Experimental: as §1

[13] = test system: Aspergillus fumigatus 28435; assay: MIC susceptibility testing; assay type: cell-based; details: Aspergillus fumigatus, 28435; CLSI M38-A2; read-out: Voriconazole MIC
Experimental: as §1

[14] = test system: Mucor fragilis 27782; assay: MIC susceptibility testing; assay type: cell-based; details: Mucor fragilis, 27782; CLSI M38-A2; read-out: Voriconazole MIC
Experimental: as §1

[15] = test system: Fusarium solani 28386; assay: MIC susceptibility testing; assay type: cell-based; details: Fusarium solani, 28386; CLSI M38-A2; read-out: Voriconazole MIC
Experimental: as §1

[16] = test system: Rhizopus microsporus 28506; assay: MIC susceptibility testing; assay type: cell-based; details: Rhizopus microsporus, 28506; CLSI M38-A2; read-out: Voriconazole MIC
Experimental: as §1

[17] = test system: Rhizopus microsporus 27785; assay: MIC susceptibility testing; assay type: cell-based; details: Rhizopus microsporus, 27785; CLSI M38-A2; read-out: Voriconazole MIC
Experimental: as §1

[18] = test system: Aspergillus flavus 28455; assay: MIC susceptibility testing; assay type: cell-based; details: Aspergillus flavus, 28455; CLSI M38-A2; read-out: Voriconazole MIC
Experimental: as §1

[19] = test system: Aspergillus fumigatus 28434; assay: MIC susceptibility testing; assay type: cell-based; details: Aspergillus fumigatus, 28434; CLSI M38-A2; read-out: Voriconazole MIC
Experimental: as §1

[20] = test system: Fusarium oxysporum 27718; assay: MIC susceptibility testing; assay type: cell-based; details: Fusarium oxysporum, 27718; CLSI M38-A2; read-out: Voriconazole MIC
Experimental: as §1

[21] = test system: Aspergillus flavus 28445; assay: MIC susceptibility testing; assay type: cell-based; details: Aspergillus flavus, 28445; CLSI M38-A2; read-out: Voriconazole MIC
Experimental: as §1

[22] = test system: Candida krusei 28415; assay: MIC susceptibility testing (fluconazole-resistant strain); assay type: cell-based; details: Pichia kudriavzevii, 28415; CLSI M27-A3
Experimental: as §1

[23] = test system: Cryptococcus neoformans 19526; assay: MIC susceptibility testing (caspofungin-resistant strain); assay type: cell-based; details: Cryptococcus neoformans, 19526; CLSI M27-A3; read-out: Fluconazole MIC
Experimental: as §1

[24] = test system: Candida parapsilosis 2006; assay: as above; assay type: cell-based; details: Lodderomyces parapsilosis, 2006; CLSI M27-A3; read-out: Fluconazole MIC
Experimental: as §1

[25] = test system: Candida glabrata 27243; assay: MIC susceptibility testing (fluconazole-resistant strain); assay type: cell-based; details: Nakaseomyces glabratus, 27243; CLSI M27-A3
Experimental: as §1

[26] = test system: Candida albicans 23512; assay: as above; assay type: cell-based; details: Candida albicans, 23512; CLSI M27-A3
Experimental: as §1

[27] = test system: Candida krusei 28570; assay: MIC susceptibility testing; assay type: cell-based; details: Pichia kudriavzevii, 28570; CLSI M27-A3; read-out: Fluconazole MIC
Experimental: as §1

[28] = test system: Candida glabrata 28271; assay: MIC susceptibility testing; assay type: cell-based; details: Nakaseomyces glabratus, 28271, read-out: Fluconazole MIC
Experimental: as §1

[29] = test system: Candida albicans 28200; assay: MIC susceptibility testing; assay type: cell-based; details: Candida albicans, 28200; CLSI M27-A3; read-out: Fluconazole MIC
Experimental: as §1

[30] = test system: Candida tropicalis 28272; assay: MIC susceptibility testing; assay type: cell-based; details: Candida tropicalis, 28272; CLSI M27-A3; read-out: Fluconazole MIC
Experimental: as §1

[31] = test system: Candida parapsilosis 28364; assay: MIC susceptibility testing; assay type: cell-based; details: Lodderomyces parapsilosis, 28364; CLSI M27-A3; read-out: Fluconazole MIC
Experimental: as §1

[32] = test system: Candida tropicalis 28478; assay: MIC susceptibility testing; assay type: cell-based; details: Candida tropicalis, 28478; CLSI M27-A3; read-out: Fluconazole MIC
Experimental: as §1

[33] = test system: Candida glabrata 25742; assay: MIC susceptibility testing; assay type: cell-based; details: Nakaseomyces glabratus, 25742; CLSI M27-A3; read-out: Fluconazole MIC
Experimental: as §1

[34] = test system: Candida tropicalis 9624; assay: MIC susceptibility testing; assay type: cell-based; details: Candida tropicalis, 9624; CLSI M27-A3; read-out: Fluconazole MIC
Experimental: as §1

[35] = test system: Candida parapsilosis 28174; assay: MIC susceptibility testing; assay type: cell-based; details: Lodderomyces parapsilosis, 28174; CLSI M27-A3; read-out: Fluconazole MIC
Experimental: as §1

[36] = test system: Cryptococcus neoformans 27708; assay: MIC susceptibility testing; assay type: cell-based; details: Cryptococcus neoformans, 27708; CLSI M27-A3; read-out: Fluconazole MIC
Experimental: as §1

[37] = test system: Candida albicans 28102; assay: MIC susceptibility testing; assay type: cell-based; details: Candida albicans, 28102; CLSI M27-A3; read-out: Fluconazole MIC
Experimental: as §1

[38] = test system: Cryptococcus neoformans 28446; assay: MIC susceptibility testing; assay type: cell-based; details: Cryptococcus neoformans, 28446; CLSI M27-A3; read-out: Fluconazole MIC
Experimental: as §1

[39] = test system: Candida krusei 9541; assay: MIC susceptibility testing; assay type: cell-based; details: Pichia kudriavzevii, 9541; CLSI M27-A3; read-out: Fluconazole MIC
Experimental: as §1

[40] = target: rabbit skeletal muscle filamentous actin (F-actin) (rabbit) (UniProt P68135); assay: co-sedimentation; F-actin 200 nM; occidiofungin 25 to 25,600 nM or phalloidin 25 to 800 nM; 5 mM Tris-HCl pH 8.0, 0.2 mM ATP, 2 mM MgCl2; 30 min at room temperature; 100,000 rpm, 4°C, 20 min; free and bound ligand quantified by mass spectrometry; Langmuir isotherm; macroscopic Kd
[41] = test system: Candida albicans strain ATCC 66027; details: cited from earlier work
Experimental: Therefore, additional studies related to the perturbation of actin-based functions were performed to confirm that actin was the biological target of occidiofungin. As a dimorphic fungus, C. albicans can grow as a yeast or hypha, and the ability to switch between these forms is linked to the pathogenicity of the organism ([29]). Several reports have established that actin cables play an important role in the switch between yeast and hyphal forms ([30], [31]). The impact of ...

[42] = at doses required for efficacious effect; cited from earlier work
Experimental: Natural products with in vitro antifungal properties that target the actin cytoskeleton were previously reported ([51]). […] Occidiofungin, on the other hand, is well tolerated at 5 mg/kg or 20 mg/kg when administered intravenously or subcutaneously, respectively ([22], [25]). This dose is much higher than the MIC of occidiofungin against several fungal pathogens. ...

[43] = target: rabbit skeletal muscle filamentous actin (F-actin) (rabbit) (UniProt P68135); assay: co-sedimentation

Molecule: C[C@@H](c1ncncc1F)[C@](O)(Cn1cncn1)c1ccc(F)cc1F [Voriconazole, voriconazole, reference compound]
- MIC ([1]; read-out: Voriconazole MIC): 0.008 µg/mL (≈ 0.0229 µM)
- MIC ([2]; read-out: Voriconazole MIC): 0.25 µg/mL (≈ 0.716 µM)
- MIC ([3]; read-out: Voriconazole MIC): 0.06 µg/mL (≈ 0.172 µM)
- MIC ([4]; read-out: Voriconazole MIC): 0.06 µg/mL (≈ 0.172 µM)
- MIC [5]: > 16 µg/mL
- MIC ([6]; read-out: Voriconazole MIC): 0.03 µg/mL (≈ 0.0859 µM)
- MIC [7]: > 16 µg/mL
- MIC ([8]; read-out: Voriconazole MIC): 0.03 µg/mL (≈ 0.0859 µM)
- MIC [9]: 1 µg/mL (≈ 2.86 µM)
- MIC [10]: 1 µg/mL (≈ 2.86 µM)
- MIC [11]: > 16 µg/mL
- MIC [12]: > 16 µg/mL
- MIC [13]: 1 µg/mL (≈ 2.86 µM)
- MIC [14]: > 16 µg/mL
- MIC [15]: > 16 µg/mL
- MIC [16]: 16 µg/mL (≈ 45.8 µM)
- MIC [17]: > 16 µg/mL
- MIC [18]: 2 µg/mL (≈ 5.73 µM)
- MIC [19]: 1 µg/mL (≈ 2.86 µM)
- MIC [20]: > 16 µg/mL
- MIC [21]: 2 µg/mL (≈ 5.73 µM)

Molecule: OC(Cn1cncn1)(Cn1cncn1)c1ccc(F)cc1F [Fluconazole, fluconazole, reference compound]
- MIC [22]: 64 µg/mL (≈ 209 µM)
- MIC ([1]; read-out: Fluconazole MIC): 0.25 µg/mL (≈ 0.816 µM)
- MIC [23]: 4 µg/mL (≈ 13.1 µM)
- MIC [24]: 0.125 µg/mL (≈ 0.408 µM)
- MIC ([2]; read-out: Fluconazole MIC): > 16 µg/mL
- MIC [25]: 64 µg/mL (≈ 209 µM)
- MIC [26]: 32 µg/mL (≈ 104 µM)
- MIC ([3]; read-out: Fluconazole MIC): 16 µg/mL (≈ 52.2 µM)
- MIC ([4]; read-out: Fluconazole MIC): > 16 µg/mL
- MIC [27]: 16 µg/mL (≈ 52.2 µM)
- MIC [28]: > 64 µg/mL
- MIC [29]: 8 µg/mL (≈ 26.1 µM)
- MIC [30]: 0.125 µg/mL (≈ 0.408 µM)
- MIC ([6]; read-out: Fluconazole MIC): 2 µg/mL (≈ 6.53 µM)
- MIC [31]: 0.25 µg/mL (≈ 0.816 µM)
- MIC ([8]; read-out: Fluconazole MIC): 2 µg/mL (≈ 6.53 µM)
- MIC [32]: 0.125 µg/mL (≈ 0.408 µM)
- MIC [33]: 4 µg/mL (≈ 13.1 µM)
- MIC [34]: 0.25 µg/mL (≈ 0.816 µM)
- MIC [35]: 0.25 µg/mL (≈ 0.816 µM)
- MIC [36]: 2 µg/mL (≈ 6.53 µM)
- MIC [37]: 0.125 µg/mL (≈ 0.408 µM)
- MIC [38]: 4 µg/mL (≈ 13.1 µM)
- MIC [39]: 16 µg/mL (≈ 52.2 µM)

Molecule: Phalloidin (peptide)
- Kd [40]: 8 nM
- stoichiometry N (phalloidin per actin monomer) [40]: 0.6

Molecule: C/C1=C/C(=O)O[C@@H]2C[C@@H](CC[C@H](C)/C=C\C=C\CC1)O[C@@](O)([C@@H]1CSC(=O)N1)C2 [latrunculin A]
- effect on hyphal formation [41]: prevent hyphal formation

Molecule: C=C1[C@@H](C)[C@H]2[C@H](Cc3ccccc3)NC(=O)[C@]23OC(=O)/C=C/C(=O)CCC[C@@H](C)C/C=C/[C@H]3[C@@H]1O [cytochalasin A]
- effect on hyphal formation [41]: prevent hyphal formation

Molecule: COC(CC1OC(=O)CC(O)C/C=C/C(=O)C(C)C(OC)c2coc(n2)-c2coc(n2)-c2coc(n2)/C=C/CCC1C)C(C)CCC(=O)C(C)C(C/C=C/N(C)C=O)OC (centres unmarked) [halichondramide]
- toxicity in animals [42]: limited by their toxicity in animals

Molecule: Occidiofungin (peptide)
- Kd [43]: 1000 nM
- stoichiometry N (occidiofungin per actin monomer) [43]: 24

Molecule: jasplakinolide
- toxicity in animals [42]: limited by their toxicity in animals
